Data: patent publication US20250011788A1, “NUCLEIC ACID INTERFERENCE PHARMACEUTICAL COMPOSITION, AND DRUG FOR TREATING COLORECTAL CANCER, GASTRIC CANCER, AND PROSTATE CANCER” (SIRNAOMICS BIOPHARMACEUTICALS (SUZHOU) CO., LTD., priority 2022, published 2025)
d = 2'-deoxy (DNA); r = 2'-OH (RNA)

What was measured:
[1] = tested on: RM-1 cells tumor graft; assay: Mouse subcutaneous tumor graft model of prostate cancer RM-1 cells; assay type: in vivo, C57BL/6J mice
Procedure: Next, another tumor graft model was established to further validate the pharmacodynamic evaluation of candidate drug on the growth of mouse tumor graft of mouse prostate cancer RM-1 cells. The nano drug formulation was prepared by the method described above. RM-1 subcutaneous tumor-bearing mice were modeled as follows: C57BL/6J mice were each inoculated subcutaneously with 5×10^6 cells. The mice were grouped on the basis of random numbers when the mean tumor volume reached about 100-120 mm^3. The dosing regimen was as follows: for STP500, 3 mg/kg, intravenously administered (i.v.) via the tail vein, every 2 days (Q2D); for The positive control (docetaxel), 15 mg/kg, intraperitoneally administered (i.p.), every week (QW). After the first dose, the weight and tumor volume of the mice were recorded every 2 days, and the tumor volume was calculated by V=0.5×(Dmax×Dmin^2), where Dmax refers to the longest diameter of the tumor, and Dmin refers to the shortest diameter of the tumor. A tumor volume curve was drawn at the end of the experiment. The mice were euthanized, and tumors were removed and weighed. TGItw (percentage change in Tumor weight) was calculated by:
(§1) [formula] • Mean TWtreat: the mean tumor weight of the mice in the treatment group at the end of treatment; • Mean TWvehicle: the Mean tumor weight of mice in the Vehicle group at the end of treatment.

[2] = tested on: MKN45 cells tumor xenograft; assay: Mouse subcutaneous tumor xenograft model of gastric cancer MKN45 cells; assay type: in vivo, BALB/c-Nude mice
Procedure: Next, another tumor graft model was established to further validate the pharmacodynamic evaluation of candidate drug on the growth of mouse tumor xenograft of human gastric cancer MKN45 cells. The nano drug formulation was prepared by the method described above. MKN45 subcutaneous tumor-bearing mice were modeled as follows: BALB/c-Nude mice were each inoculated subcutaneously with 5×10^6 MKN45 cells. Randomization was performed when the mean tumor volume reached about 100-120 mm^3. […] After the first dose, the weight and tumor volume of the mice were recorded every 2 days, and the tumor volume was calculated by V=0.5×(Dmax×Dmin^2), where Dmax refers to the longest diameter of the tumor, and Dmin refers to the shortest diameter of the tumor. A tumor volume curve was drawn at the end of the experiment. The mice were euthanized, and tumors were removed and weighed. TGItw (percentage change in tumor weight) was calculated by:
as §1

[3] = tested on: MC38 cells tumor graft; assay: Mouse subcutaneous tumor graft model of colorectal cancer MC38 cells; assay type: in vivo, C57BL/6 mice; conditions: STP500 2 mg/kg i.v. Q2D, siMD8 1 mg/kg i.v. Q2D, Sorafenib 30 mg/kg p.o. QD
Source text: Based on the data from previous in-vitro experiments, two siRNAs (MD8-21-hm5# and TF1-25-hm5# in this example) were mixed at a mass ratio of 1/1, and encapsulated the mixture into the HKP(+H) (histidine-lysine polymer) carrier through patented PNP technology to prepare the nanoparticle formulation (the nano drug formulation STP500 prepared in Example 8). The tumor growth inhibitory activity of the candidate siRNA sequence was validated by a mouse tumor xenograft model (colorectal cancer cells MC38).
C57BL/6 mice were each inoculated subcutaneously with 1×10^6 MC38 cells per mouse, and randomized groups when the mean tumor volume reached about 100 mm^3. The dosing regimen was as follows: for STP500, 2 mg/kg, intravenously administered (i.v.) via the tail vein, every 2 days (Q2D); for Small nucleic acid monotherapy MD8 (MyD88 siRNA, also known as siMyD88), 1 mg/kg, intravenously administered (i.v.) via the tail vein, every 2 days (Q2D); and for the positive control group (Sorafenib), 30 mg/kg, intragastrically administered p.o., every day (QD). After the first dose, the weight and tumor volume of the mice were recorded every 2 days, and the tumor volume was calculated by V=0.5×(Dmax×Dmin^2), where Dmax refers to the longest diameter of the tumor, and Dmin refers to the shortest diameter of the tumor. […] TGItw (percentage change in tumor weight) was calculated by: […]

[4] = tested on: MyD88 gene (mRNA); assay: In vitro screening of MyD88 siRNA: MyD88 mRNA silencing by RT-PCR; assay type: cell-based, human; conditions: 100 nM siRNA; for target gene silencing effect in colorectal cells: lipo2000, 20-24 h
Procedure: Some cell lines screened out in Example 2 were used for primary siRNA screening, including a breast cancer cell line (MDA-MB-231), a neuroglioma cell line (U87-MG), a human brain glioma cell line (T98G), a human colorectal cancer epithelial cell line (DLD-1) and a human colon cancer cell line (RKO). Specifically, the MyD88 siRNA sequence in Table 1 was transfected into the above five cells by lipo2000, and the transfection concentration was 100 nM (calculated by siRNA). After transfection for 20-24 h, the total RNA of the cells was extracted, and the mRNA expression level of the target gene MyD88 was detected by RT-PCR technology. […] The three specifical sequences are MD8-21-hm3# (NTS00025-21-hm3# in FIG. 3), MD8-21-hm4# (NTS00025-21-hm4# in FIG. 3) and MD8-21-hm5# (NTS00025-21-hm5# in FIG. 3).

[5] = tested on: MyD88 gene (mRNA); assay: EC50 of MyD88 mRNA knockdown in human-derived cell lines; assay type: cell-based
Procedure: Then, for these candidate siRNA sequences, multiple concentration gradients were set in human-derived cell lines and mouse-derived cell lines respectively for cell transfection, and their EC50 values (half-maximal effective concentration) were obtained. […] In the mouse-derived cell lines, EC50<10 nM only occurs for MD8-21-hm5# in mouse prostate cancer (RM-1) cells and colorectal cancer (MC38) cells as well as MD8-21-hm4# in colorectal cancer (MC38) cells. Therefore, based on the above data, the human-mouse homologous sequence MD8-21-hm5# is preferably used for pharmacodynamic evaluation of animal models in vivo.

[6] = tested on: MyD88 protein; assay: Western Blot knockdown of target gene protein in cell lines (MyD88); assay type: cell-based, human and mouse cell lines; conditions: MDA-MB-231, RKO and RM-1 cells; 100 nM and 10 nM, 48 h
[7] = tested on: DLD-1 cells; assay: In vitro cell migration (wound healing/scratch) test; assay type: cell-based, human; conditions: 96 h, 100 and 10 nM, dose-dependent
Procedure: On the day before the initiation of the experiment, a 12-well plate was prepared, a 2-well culture-insert for wound healing (ibidi, 80209) was placed in the center of the culture dish, and cells were inoculated into the 2-well culture-insert at 1×10^4 cells per well and cultured overnight. On the second day, siMyD88 was transfected into the cells at […] and 10 nM, and the transfection experiment was completed. After transfection for 24 h, the 2-well culture-insert for wound healing was gently removed with tweezers (to avoid cell shedding), and the 12-well plate was added with a medium containing 1% serum to continue cell culture. At the same time, a photograph was taken under the microscope as the 0 h cell migration data. The culture was continued for 24 h and 96 h, and the cell migration was recorded under the microscope. The cell migration was determined by comparing the wound distance at the initial scratch (0 h) versus at the later observation points (24 h and 96 h).

[8] = tested on: TGF-β1 protein; assay: Western Blot knockdown of target gene protein in cell lines (TGF-β1); assay type: cell-based, human; conditions: RKO cell line; 100 nM and 10 nM, 48 h
Procedure: The target gene knockdown effects of siRNA sequences on the targets TGF-β1 and MyD88 at the cellular level were evaluated by Western Blot. The procedures were as follows: on The day before the initiation of the experiment, the cells were inoculated in a 6-well plate at 1×10^6 cells per well, and cultured overnight. On the second day, siMyD88 and siTF1 were transfected into the cells at 100 nM and 10 nM respectively. After transfection for 48 h, the cells were collected and transferred to centrifuge tubes. RIPA lysate was added to each tube to extract total cell protein, and then the total cell protein concentration was quantified by a BCA protein quantification method. Western Blot analysis was performed on all protein samples using the following antibodies: MyD88 primary antibody (ab219413, 1:1000), TGF-β1 primary antibody (ab215715, 1:1000), Goat Anti-Rabbit IgG H&L (HRP) (ab205718, 1:10000). After the experiment, the ChemiDoc™ MP Imaging System (BIO-RAD) was used to capture the results.
Western Blot analysis of protein expression in candidate MyD88 siRNA (MD8-21-hm5#) plus TGF-β1 siRNA (TF1-21-h1#) in three cell lines in in-vitro human breast cancer cell line (MDA-MB-231) (FIG. 5A), human colon cancer cell line (RKO) (FIG. 5B) and mouse prostate cancer (RM-1) cells (FIG. 5C).

CC(=O)O[C@@]12CO[C@@H]1C[C@H](O)[C@@]1(C)C(=O)[C@H](O)C3=C(C)[C@@H](OC(=O)[C@H](O)[C@@H](NC(=O)OC(C)(C)C)c4ccccc4)C[C@@](O)([C@@H](OC(=O)c4ccccc4)[C@H]21)C3(C)C [Docetaxel]
effect on the weight of mice ([1]; STP500 3 mg/kg Q2D, Docetaxel 15 mg/kg i.p. QW): no significant difference
growth of prostate cancer tumor graft ([1]; after 8 doses, compared with control group): did not show a tumor-killing effect
Tumor weight, Mean ([1]; end of treatment, STP500 3 mg/kg i.v. Q2D, Docetaxel 15 mg/kg i.p. QW): 4.72 g
TGItw (tumor growth inhibition by tumor weight) ([1]; versus Vehicle, STP500 3 mg/kg i.v. Q2D, Docetaxel 15 mg/kg i.p. QW): −4%

O=C1[O][Pt]2([NH][C@@H]3CCCC[C@H]3[NH]2)[O]C1=O [Oxaliplatin]
growth of gastric cancer tumor graft ([2]; after 7 doses, compared with control group): better tumor inhibition effect
Tumor weight, Mean ([2]; end of treatment, STP500 3 mg/kg i.v. Q2D, Oxaliplatin 7.5 mg/kg i.p. QD): 0.16 g
TGItw (tumor growth inhibition by tumor weight) ([2]; versus Vehicle, STP500 3 mg/kg i.v. Q2D, Oxaliplatin 7.5 mg/kg i.p. QD): 58%

CNC(=O)c1cc(Oc2ccc(NC(=O)Nc3ccc(Cl)c(C(F)(F)F)c3)cc2)ccn1 [Sorafenib]
Tumor weight, Mean ([3]; end of treatment): 0.3571 g
TGItw (tumor growth inhibition by tumor weight) ([3]; versus Vehicle): 12.28%

MD8-21-h5#: MyD88 siRNA; sense GCAUACACACGUUUUUCUAdTdT (SEQ ID NO: 9), antisense UAGAAAAACGUGUGUAUGCdTdT (SEQ ID NO: 10) (sense GCAUACACACGUUUUUCUATT; antisense UAGAAAAACGUGUGUAUGCTT; sugars from the 5' end r19 d2, backbone not given here)
ranking of silencing effect among human-derived sequences ([4]; five human cell lines): best effect
effect in EC50 comparison [5]: relatively good

MD8-21-hm3#: MyD88 siRNA; sense CAGAGCAAGGAAUGUGACUdTdT (SEQ ID NO: 27), antisense AGUCACAUUCCUUGCUCUGdTdT (SEQ ID NO: 28) (sense CAGAGCAAGGAAUGUGACUTT; antisense AGUCACAUUCCUUGCUCUGTT; sugars from the 5' end r19 d2, backbone not given here)
target gene silencing effect in colorectal cells [4]: about 85%

MD8-21-hm4#: MyD88 siRNA; sense GCAAGGAAUGUGACUUCCAdTdT (SEQ ID NO: 29), antisense UGGAAGUCACAUUCCUUGCdTdT (SEQ ID NO: 30) (sense GCAAGGAAUGUGACUUCCATT; antisense UGGAAGUCACAUUCCUUGCTT; sugars from the 5' end r19 d2, backbone not given here)
target gene silencing effect in colorectal cells [4]: about 85%

MD8-21-hm5#: MyD88 siRNA; sense GAAUGUGACUUCCAGACCAdTdT (SEQ ID NO: 31), antisense UGGUCUGGAAGUCACAUUCdTdT (SEQ ID NO: 32) (sense GAAUGUGACUUCCAGACCATT; antisense UGGUCUGGAAGUCACAUUCTT; sugars from the 5' end r19 d2, backbone not given here)
knockdown effect on MyD88 protein [6]: obvious knockdown effect
inhibitory effect on in vitro migration ability [7]: significant inhibitory effect
target gene silencing effect in colorectal cells [4]: about 85%
effect in EC50 comparison [5]: relatively good

TF1-21-h1#: TGF-β1 siRNA; sense GCAGAGUACACACAGCAUAdTdT (SEQ ID NO: 37), antisense UAUGCUGUGUGUACUCUGCdTdT (SEQ ID NO: 38) (sense GCAGAGUACACACAGCAUATT; antisense UAUGCUGUGUGUACUCUGCTT; sugars from the 5' end r19 d2, backbone not given here)
knockdown effect on TGF-β1 protein [8]: obvious knockdown effect
